Literature values, collected in patent US20150313903A1, “METHODS OF TREATING COGNITIVE IMPAIRMENT ASSOCIATED WITH NEURODEGENERATIVE DISORDERS” (Ovid Therapeutics Inc., priority 2014, published 2015).
Like-named read-outs stand apart in the source and are kept apart here.

Columns and labels:
[1] = design: key: *: shown to have a beneficial effect in ALS; conditions: in vivo
[2] = generalized anxiety disorders, versus control subjects
[3] = classical conditioning model
[4] = not given; remark: listed apart in the source
[5] = subjects taking ritanserin
[6] = in vivo
[7] = direct injection into the hippocampus, rats
dopamine transporter = biological target: T1, dopamine transporter (Homo sapiens, UniProt Q01959); conditions: within the prefrontal cortex (PFC)
T1 construct: host or cells: prefrontal cortex
T1 sequence (Q01959 whole entry): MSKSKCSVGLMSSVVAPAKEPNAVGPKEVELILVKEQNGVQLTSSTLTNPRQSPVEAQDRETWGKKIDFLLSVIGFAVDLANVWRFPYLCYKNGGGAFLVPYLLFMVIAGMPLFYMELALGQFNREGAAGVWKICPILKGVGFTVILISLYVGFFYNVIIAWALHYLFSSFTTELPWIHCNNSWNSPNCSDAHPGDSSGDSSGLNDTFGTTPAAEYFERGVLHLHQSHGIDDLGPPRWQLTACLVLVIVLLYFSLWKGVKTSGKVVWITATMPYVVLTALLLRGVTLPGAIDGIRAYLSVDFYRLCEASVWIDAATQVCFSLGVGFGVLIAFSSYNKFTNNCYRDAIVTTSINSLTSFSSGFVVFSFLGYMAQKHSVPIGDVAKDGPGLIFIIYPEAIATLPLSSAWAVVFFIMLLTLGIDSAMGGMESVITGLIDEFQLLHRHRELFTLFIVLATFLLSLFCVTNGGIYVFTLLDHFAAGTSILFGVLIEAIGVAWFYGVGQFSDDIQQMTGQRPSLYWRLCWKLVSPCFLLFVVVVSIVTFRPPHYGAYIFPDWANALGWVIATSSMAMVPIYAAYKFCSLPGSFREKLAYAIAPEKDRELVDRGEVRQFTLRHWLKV

[8] = alcoholics
[9] = several trials, monotherapy
[10] = MPTP model of parkinsonism in mice
BDNF = conditions: in vivo
serotonin-S2 receptor = serotonin-S2 receptor (Rattus norvegicus, UniProt P14842); conditions: in vivo; dose as low as
Chain of serotonin-S2 receptor (P14842 whole entry): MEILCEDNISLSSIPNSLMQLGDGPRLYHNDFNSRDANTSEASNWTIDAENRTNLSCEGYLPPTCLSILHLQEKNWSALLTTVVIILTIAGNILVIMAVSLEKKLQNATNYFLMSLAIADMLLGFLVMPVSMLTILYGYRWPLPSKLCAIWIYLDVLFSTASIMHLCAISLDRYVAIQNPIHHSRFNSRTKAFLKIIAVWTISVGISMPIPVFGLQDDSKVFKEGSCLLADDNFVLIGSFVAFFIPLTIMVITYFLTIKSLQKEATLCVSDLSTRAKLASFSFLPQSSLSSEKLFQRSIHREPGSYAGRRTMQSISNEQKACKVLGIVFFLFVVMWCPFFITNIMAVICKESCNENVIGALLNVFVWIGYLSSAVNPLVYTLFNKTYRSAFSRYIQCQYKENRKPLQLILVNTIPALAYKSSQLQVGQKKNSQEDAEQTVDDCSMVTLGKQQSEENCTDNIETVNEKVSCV

[11] = in vivo; remark: listed apart in the source
[12] = in vivo; remark: listed apart in the source
[13] = acute dose 10 mg, healthy volunteers
[14] = Parkinson's patients, later studies
[15] = open pilot trial, parkinsonian patients

## Nc1nc2ccc(OC(F)(F)F)cc2s1 [Riluzole, 2-amino-6-(trifluoromethoxy) benzothiazole]
[1]
  beneficial effect in ALS (asterisk mark): *Riluzole

## Cc1nc2sccn2c(=O)c1CCN1CCC(=C(c2ccc(F)cc2)c2ccc(F)cc2)CC1 [ritanserin, 6-[2-[4-[bis(4-fluorophenyl)methylene]-1-piperidinyl]ethyl]-7-methyl-5H-thiazolo[3,2-a]pyrimidin-5-one]
[13]
  effect on REM sleep: decreased REM sleep
  effect on Stage 2 sleep: decreased Stage 2 sleep
  effect on slow-wave sleep: increased slow-wave sleep
Administered just before bedtime
  increase in SWS during the night, on average: about 52 minutes
After morning administration
  psychomotor sedation during the day: no psychomotor sedation
After repeated administration
  tolerance to the sleep-enhancing effects: no tolerance
At clinical doses
  SWS duration: can double SWS duration
Dose 1 mg
  average increase in slow-wave sleep: 53 min
Dose 3 mg
  average increase in slow-wave sleep: 82 min
Dose 10 mg
  average increase in slow-wave sleep: 101 min
Dose 30 mg
  average increase in slow-wave sleep: 136.5 min
Morning administration
  increase in SWS during the night, on average: about 94 minutes
[2]
  self-rating of treated subjects: calmer, more relaxed, and more energetic than control subjects
[3]
  effect on learning: impair learning
[4]; [14]
  bradykinesia: reduced bradykinesia
  gait: improved gait
[4]; [15]
  L-Dopa-induced dyskinesia: reduced L-Dopa-induced dyskinesia
  tremor, rigidity, or akinesia: no significant modifying
[5]
  weight gain: Weight gain is not observed
[6]
  blocking the physiological effects of LSD: some activity
[7]
  effect on learning: inhibit learning
Dopamine transporter
  inhibition of the dopamine transporter: selectively inhibit the dopamine transporter
[8]
  outcome of Phase 3 trial for alcohol abstinence: failed a Phase 3 trial
[9]
  efficacy in schizophrenia: did show efficacy
[10]
  motor deficit: reduced motor deficit
BDNF
  expression of brain (hippocampal) BDNF: increases the expression
serotonin-S2 receptor
  dose giving 50% serotonin-S2 receptor occupation: 0.08 m/kg

## CC(C)COc1ccc(CNC(=O)N(Cc2ccc(F)cc2)C2CCN(C)CC2)cc1 [Pimavanserin]
[11]
  reversing PCP-induced deficits: no activity
[12]
  efficacy in psychosis associated with Parkinson's disease: effective
